Here are results for 15 compounds from ChEMBL document CHEMBL5465560, “Selectivity Literature for EUbOPEN Chemogenomic Library” (2024).

Molecules are shown by their SMILES.

The target of test [1] is Mitogen-activated protein kinase 3 (Homo sapiens, UniProt P27361). In words: Selectivity interaction (Kinase panel (Z-LYTE Assay)) EUB0001632a MAPK3. To be noted: at 10 µM.
For test [2], the target named is ALK tyrosine kinase receptor (Homo sapiens, UniProt Q9UM73). Briefly: Selectivity interaction (Kinase panel (Z-LYTE Assay)) EUB0001632a ALK. To be noted: at 10 µM.
For test [3], the target named is Ribosomal protein S6 kinase beta-1 (Homo sapiens, UniProt P23443). In words: Selectivity interaction (Kinase panel (Z-LYTE Assay)) EUB0001632a RPS6KB1. To be noted: at 10 µM.
Test [4] addresses Serine/threonine-protein kinase MRCK beta (Homo sapiens) (UniProt Q9Y5S2). Briefly: Selectivity interaction (KinomeScan (DiscoverX)) EUB0000607a CDC42BPB. To be noted: at 10 µM.
Test [5] deals with Microtubule-associated serine/threonine-protein kinase 1 (Homo sapiens) (UniProt Q9Y2H9). Briefly: Selectivity interaction (KinomeScan (DiscoverX)) EUB0000229b MAST1. To be noted: at 10 µM.
Sequence of Microtubule-associated serine/threonine-protein kinase 1 (Homo sapiens) (Q9Y2H9 whole entry, looked up): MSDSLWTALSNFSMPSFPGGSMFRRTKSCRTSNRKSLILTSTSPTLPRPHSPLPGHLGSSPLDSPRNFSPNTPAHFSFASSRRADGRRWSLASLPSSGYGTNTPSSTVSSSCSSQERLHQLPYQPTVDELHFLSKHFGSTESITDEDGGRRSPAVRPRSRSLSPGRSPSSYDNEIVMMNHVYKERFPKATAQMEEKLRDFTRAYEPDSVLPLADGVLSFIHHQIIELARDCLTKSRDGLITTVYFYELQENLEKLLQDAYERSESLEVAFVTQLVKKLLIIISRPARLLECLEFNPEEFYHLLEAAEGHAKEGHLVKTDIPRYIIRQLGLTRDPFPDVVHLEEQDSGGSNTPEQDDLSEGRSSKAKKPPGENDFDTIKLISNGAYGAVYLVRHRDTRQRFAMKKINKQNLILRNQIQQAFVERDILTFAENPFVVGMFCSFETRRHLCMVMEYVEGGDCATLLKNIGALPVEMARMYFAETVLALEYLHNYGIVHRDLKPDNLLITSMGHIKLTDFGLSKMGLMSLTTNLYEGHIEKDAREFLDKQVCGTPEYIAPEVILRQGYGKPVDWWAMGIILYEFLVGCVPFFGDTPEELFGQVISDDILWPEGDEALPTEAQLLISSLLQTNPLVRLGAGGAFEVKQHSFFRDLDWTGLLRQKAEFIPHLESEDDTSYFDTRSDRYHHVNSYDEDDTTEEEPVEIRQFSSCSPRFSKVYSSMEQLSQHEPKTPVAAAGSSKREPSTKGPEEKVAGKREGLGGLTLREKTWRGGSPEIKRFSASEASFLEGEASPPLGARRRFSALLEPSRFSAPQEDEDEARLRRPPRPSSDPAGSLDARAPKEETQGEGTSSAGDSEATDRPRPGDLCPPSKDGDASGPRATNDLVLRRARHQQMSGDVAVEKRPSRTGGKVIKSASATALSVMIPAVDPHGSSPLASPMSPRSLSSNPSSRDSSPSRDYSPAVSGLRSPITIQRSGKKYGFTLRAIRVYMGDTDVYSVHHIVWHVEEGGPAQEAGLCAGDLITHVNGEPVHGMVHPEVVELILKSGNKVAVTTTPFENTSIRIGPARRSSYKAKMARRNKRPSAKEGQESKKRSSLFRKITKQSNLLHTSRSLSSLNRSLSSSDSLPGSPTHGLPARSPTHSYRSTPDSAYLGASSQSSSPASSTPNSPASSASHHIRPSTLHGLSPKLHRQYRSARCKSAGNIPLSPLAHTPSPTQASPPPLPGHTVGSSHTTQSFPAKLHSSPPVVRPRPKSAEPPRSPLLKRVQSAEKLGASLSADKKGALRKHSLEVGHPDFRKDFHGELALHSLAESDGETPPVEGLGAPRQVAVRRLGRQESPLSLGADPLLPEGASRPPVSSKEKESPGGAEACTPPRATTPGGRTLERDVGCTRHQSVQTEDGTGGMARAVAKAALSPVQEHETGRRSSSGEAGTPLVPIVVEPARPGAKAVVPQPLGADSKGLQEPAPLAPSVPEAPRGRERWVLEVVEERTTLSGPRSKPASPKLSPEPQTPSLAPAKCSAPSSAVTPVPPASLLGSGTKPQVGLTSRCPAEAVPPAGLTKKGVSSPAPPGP
The target of test [6] is Ribosomal protein S6 kinase alpha-5 (Homo sapiens) (UniProt O75582). In words: Selectivity interaction (KinomeScan (DiscoverX)) EUB0000229b RPS6KA5. Conditions: at 10 µM.
The target in test [7] is Serine/threonine-protein kinase PRP4 homolog (Homo sapiens) (UniProt Q13523). In words: Selectivity interaction (KinomeScan (DiscoverX)) EUB0001079a PRPF4B. Conditions: at 1 µM.
Sequence of Serine/threonine-protein kinase PRP4 homolog (Homo sapiens) (Q13523 whole entry): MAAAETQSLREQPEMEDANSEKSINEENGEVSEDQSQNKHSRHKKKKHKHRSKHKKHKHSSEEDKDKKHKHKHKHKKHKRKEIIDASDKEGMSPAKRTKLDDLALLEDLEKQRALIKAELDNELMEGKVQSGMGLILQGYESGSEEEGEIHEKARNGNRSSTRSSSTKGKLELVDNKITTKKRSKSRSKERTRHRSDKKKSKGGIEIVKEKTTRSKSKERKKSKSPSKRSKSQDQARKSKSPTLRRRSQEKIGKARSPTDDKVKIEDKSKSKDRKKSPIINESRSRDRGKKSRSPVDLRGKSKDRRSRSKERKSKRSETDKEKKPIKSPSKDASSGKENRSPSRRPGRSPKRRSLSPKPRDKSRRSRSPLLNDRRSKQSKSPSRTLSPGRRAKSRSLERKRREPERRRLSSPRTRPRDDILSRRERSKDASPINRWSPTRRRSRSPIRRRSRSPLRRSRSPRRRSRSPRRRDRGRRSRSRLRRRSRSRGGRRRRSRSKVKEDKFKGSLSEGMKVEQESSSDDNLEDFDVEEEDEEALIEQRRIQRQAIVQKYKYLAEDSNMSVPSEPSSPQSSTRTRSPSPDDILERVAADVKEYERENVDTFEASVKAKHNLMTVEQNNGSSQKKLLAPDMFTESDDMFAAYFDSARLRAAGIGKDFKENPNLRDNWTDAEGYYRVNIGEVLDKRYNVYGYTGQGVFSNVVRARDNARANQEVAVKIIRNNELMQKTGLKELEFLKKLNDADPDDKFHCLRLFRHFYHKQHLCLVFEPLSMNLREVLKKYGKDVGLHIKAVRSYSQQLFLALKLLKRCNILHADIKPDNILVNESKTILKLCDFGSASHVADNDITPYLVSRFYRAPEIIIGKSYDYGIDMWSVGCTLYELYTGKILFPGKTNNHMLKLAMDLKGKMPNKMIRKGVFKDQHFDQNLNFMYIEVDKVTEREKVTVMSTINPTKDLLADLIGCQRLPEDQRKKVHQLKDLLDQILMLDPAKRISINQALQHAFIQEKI
In test [8] the target is Ribosomal protein S6 kinase beta-2 (Homo sapiens) (UniProt Q9UBS0). Briefly: Selectivity interaction (ActivX KiNativ screen (ex vivo kinase selectivity in human PBMCs)) EUB0001619a RPS6KB2. It is filed as cell-based. Conditions: PBMC, at 1 µM.
Test [9] has as its target Glycogen synthase kinase-3 beta (Homo sapiens, UniProt P49841). In words: Selectivity interaction (Kinase panel (33PanQinase(R) Activity Assay)) EUB0000877a GSK3B.
The target in test [10] is Calcium/calmodulin-dependent protein kinase kinase 2 (Homo sapiens) (UniProt Q96RR4). Briefly: Selectivity interaction (Kinase panel (Invitrogen)) EUB0000639a CAMKK2. To be noted: at 200 nM.
Sequence of Calcium/calmodulin-dependent protein kinase kinase 2 (Homo sapiens) (Q96RR4 2-588 limits assumed): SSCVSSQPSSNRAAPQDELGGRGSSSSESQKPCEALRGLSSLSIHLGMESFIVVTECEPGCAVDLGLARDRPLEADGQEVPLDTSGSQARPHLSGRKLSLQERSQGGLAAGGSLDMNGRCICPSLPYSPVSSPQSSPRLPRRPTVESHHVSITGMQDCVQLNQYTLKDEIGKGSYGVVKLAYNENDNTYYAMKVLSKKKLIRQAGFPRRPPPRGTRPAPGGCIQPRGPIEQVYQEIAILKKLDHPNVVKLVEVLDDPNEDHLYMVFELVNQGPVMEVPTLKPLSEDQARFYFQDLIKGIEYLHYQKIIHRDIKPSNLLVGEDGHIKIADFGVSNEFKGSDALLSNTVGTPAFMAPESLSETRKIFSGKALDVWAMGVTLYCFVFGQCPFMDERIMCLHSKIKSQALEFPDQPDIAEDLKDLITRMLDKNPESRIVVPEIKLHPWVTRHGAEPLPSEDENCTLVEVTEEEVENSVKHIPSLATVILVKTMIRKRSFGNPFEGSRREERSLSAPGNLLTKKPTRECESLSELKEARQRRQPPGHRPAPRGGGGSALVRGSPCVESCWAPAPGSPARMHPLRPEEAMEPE
Test [11] concerns the target Ribosomal protein S6 kinase alpha-2 (Homo sapiens) (UniProt Q15349). In words: Selectivity interaction (ActivX KiNativ screen (kinase selectivity in THP-1 cell lysates)) EUB0000639a RPS6KA2. Format: subcellular. Conditions: lysate, at 1 µM.
In test [12] the target is Mitogen-activated protein kinase kinase kinase 20 (Homo sapiens) (UniProt Q9NYL2). To be noted: at 10 µM.
For test [13], the target named is T1, Uncharacterized serine/threonine-protein kinase SBK3 (Homo sapiens) (UniProt P0C264).
T1 sequence (whole entry): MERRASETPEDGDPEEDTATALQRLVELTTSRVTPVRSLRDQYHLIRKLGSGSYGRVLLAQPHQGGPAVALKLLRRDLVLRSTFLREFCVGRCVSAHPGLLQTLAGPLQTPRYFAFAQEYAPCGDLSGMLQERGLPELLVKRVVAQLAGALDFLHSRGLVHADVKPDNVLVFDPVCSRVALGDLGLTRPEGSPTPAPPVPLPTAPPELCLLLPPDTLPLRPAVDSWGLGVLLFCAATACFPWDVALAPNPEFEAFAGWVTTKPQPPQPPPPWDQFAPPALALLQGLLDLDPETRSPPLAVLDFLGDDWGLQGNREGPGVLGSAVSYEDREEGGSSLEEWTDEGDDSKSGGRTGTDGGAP
Briefly: Selectivity interaction (KinomeScan (DiscoverX)) EUB0001049a SBK3. To be noted: at 1 µM.

Test [14] has as its target Serine/threonine-protein kinase SIK3 (Homo sapiens) (UniProt Q9Y2K2). Briefly: Selectivity interaction (KinomeScan (DiscoverX)) EUB0000695a SIK3. To be noted: at 100 nM.
Test [15] deals with G protein-coupled receptor kinase 4 (Homo sapiens) (UniProt P32298). Briefly: Selectivity interaction (KinomeScan (DiscoverX)) EUB0000092b GRK4. To be noted: at 10 µM.
Sequence of G protein-coupled receptor kinase 4 (Homo sapiens) (P32298 whole entry, looked up): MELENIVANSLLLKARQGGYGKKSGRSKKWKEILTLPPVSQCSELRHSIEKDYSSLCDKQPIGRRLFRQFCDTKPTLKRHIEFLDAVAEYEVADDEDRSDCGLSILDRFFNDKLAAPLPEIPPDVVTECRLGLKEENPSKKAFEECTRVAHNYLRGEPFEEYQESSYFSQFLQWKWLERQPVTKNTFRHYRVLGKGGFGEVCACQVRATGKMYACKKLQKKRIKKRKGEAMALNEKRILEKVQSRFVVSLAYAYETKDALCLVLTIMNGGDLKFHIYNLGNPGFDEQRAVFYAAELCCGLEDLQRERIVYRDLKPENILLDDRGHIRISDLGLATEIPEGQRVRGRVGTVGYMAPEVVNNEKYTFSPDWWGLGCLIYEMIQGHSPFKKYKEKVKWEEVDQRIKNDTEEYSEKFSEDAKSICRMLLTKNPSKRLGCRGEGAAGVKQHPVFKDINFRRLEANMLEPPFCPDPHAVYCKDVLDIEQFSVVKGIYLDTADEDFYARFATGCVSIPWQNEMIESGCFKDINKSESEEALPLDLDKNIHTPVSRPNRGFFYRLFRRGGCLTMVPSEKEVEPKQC
Test [16] has as its target T2, Lymphokine-activated killer T-cell-originated protein kinase (Homo sapiens) (UniProt Q96KB5).
T2 sequence (whole entry): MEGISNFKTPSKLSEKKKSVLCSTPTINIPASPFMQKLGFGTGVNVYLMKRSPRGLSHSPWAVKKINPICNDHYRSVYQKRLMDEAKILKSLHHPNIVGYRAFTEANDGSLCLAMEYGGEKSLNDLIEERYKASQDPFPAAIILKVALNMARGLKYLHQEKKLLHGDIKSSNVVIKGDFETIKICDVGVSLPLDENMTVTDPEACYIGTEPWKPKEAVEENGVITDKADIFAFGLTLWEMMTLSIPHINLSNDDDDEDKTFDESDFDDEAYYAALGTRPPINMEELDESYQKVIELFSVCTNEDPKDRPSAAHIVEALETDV
Briefly: Selectivity interaction (Kinase panel (DSF assay)) EUB0001559a PBK. On the technique in general: DSF heats the sample and reads unfolding from a dye or from intrinsic fluorescence.

Test [17] has as its target Serine/threonine-protein kinase 32C (Homo sapiens) (UniProt Q86UX6). In words: Selectivity interaction (KinomeScan (DiscoverX)) EUB0000045b STK32C.
Test [18] concerns the target T3, Serine/threonine-protein kinase Nek2 (Homo sapiens) (UniProt P51955).
T3 sequence (whole entry): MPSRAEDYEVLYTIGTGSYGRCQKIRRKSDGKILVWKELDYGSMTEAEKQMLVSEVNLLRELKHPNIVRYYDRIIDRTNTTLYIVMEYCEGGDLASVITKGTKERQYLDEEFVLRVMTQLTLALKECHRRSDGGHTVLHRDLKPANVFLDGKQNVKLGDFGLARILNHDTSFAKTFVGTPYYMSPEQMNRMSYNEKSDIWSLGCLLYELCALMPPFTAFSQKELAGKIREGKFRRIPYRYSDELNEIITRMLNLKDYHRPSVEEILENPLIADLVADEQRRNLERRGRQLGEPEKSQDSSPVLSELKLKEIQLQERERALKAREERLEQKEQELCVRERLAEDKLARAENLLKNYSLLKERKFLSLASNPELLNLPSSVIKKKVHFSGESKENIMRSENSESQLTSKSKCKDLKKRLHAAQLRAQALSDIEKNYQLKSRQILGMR
In words: Selectivity interaction (KinomeScan (DiscoverX)) EUB0000618a NEK2. Conditions: at 10 µM.

In test [19] the target is Cyclin-dependent kinase 8 (Homo sapiens, UniProt P49336). To be noted: at 10 µM.
Sequence of Cyclin-dependent kinase 8 (P49336 whole entry): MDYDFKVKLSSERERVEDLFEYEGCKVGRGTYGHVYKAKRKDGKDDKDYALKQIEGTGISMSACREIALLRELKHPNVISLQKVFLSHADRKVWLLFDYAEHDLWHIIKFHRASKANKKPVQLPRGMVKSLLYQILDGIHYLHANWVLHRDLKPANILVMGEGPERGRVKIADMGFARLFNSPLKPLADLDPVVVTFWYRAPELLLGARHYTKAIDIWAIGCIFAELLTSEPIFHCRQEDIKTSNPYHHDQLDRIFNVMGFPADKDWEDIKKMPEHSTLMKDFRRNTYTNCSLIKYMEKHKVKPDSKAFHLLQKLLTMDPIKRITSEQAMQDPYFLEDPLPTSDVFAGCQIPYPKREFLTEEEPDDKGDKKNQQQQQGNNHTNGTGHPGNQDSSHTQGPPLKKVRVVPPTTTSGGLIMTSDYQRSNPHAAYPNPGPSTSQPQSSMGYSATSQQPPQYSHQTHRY

Sequence of Serine/threonine-protein kinase 32C (Homo sapiens) (Q86UX6 whole entry): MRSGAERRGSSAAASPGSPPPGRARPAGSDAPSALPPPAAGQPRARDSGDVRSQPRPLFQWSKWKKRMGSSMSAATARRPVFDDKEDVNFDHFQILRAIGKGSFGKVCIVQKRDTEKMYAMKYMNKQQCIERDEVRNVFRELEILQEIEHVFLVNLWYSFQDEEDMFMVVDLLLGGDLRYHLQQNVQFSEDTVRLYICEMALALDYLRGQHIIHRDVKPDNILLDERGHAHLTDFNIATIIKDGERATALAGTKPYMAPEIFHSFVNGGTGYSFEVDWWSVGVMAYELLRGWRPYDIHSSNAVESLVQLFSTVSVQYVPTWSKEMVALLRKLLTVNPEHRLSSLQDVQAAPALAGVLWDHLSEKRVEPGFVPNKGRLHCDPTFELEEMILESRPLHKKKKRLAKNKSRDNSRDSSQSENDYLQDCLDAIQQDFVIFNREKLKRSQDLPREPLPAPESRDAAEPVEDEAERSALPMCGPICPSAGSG
Sequence of Mitogen-activated protein kinase 3 (P27361 whole entry): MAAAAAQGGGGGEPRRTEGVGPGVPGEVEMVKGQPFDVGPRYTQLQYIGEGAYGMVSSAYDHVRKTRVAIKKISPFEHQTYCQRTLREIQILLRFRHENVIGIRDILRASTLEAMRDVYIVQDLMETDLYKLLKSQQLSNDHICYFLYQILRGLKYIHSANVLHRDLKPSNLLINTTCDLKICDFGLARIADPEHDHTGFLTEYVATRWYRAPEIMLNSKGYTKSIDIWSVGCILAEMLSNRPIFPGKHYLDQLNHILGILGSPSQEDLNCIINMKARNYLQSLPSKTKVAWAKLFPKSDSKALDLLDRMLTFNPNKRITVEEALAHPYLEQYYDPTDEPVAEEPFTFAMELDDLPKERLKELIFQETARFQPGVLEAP

As for `Cn1cc(-n2cnc3c(NCc4nc5cc(Cl)c(Cl)cc5[nH]4)nc(N4CCOCC4)nc32)cn1`, the % of control is -1.61% in test [1], -0.105% in test [2] and 2.46% in test [3].

For the compound `CNC(=O)Nc1ccc(-c2nc(N3CC4CCC(C3)O4)c3cnn(C4CCC5(CC4)OCCO5)c3n2)cc1`, the % of control in [4] was 100%.

As for `COc1cc(N(C)c2ccnc3ccc(C(F)(F)F)cc23)cc(OC)c1OC`, the % binding amounted to 85% in test [5] and 87% in test [6].

Regarding `Nc1cnc(N2CCc3cc(S(=O)(=O)Nc4c(F)cc(Cl)cc4F)cc(N4CCCC4=O)c32)nc1` [TP-020n], the % of control in test [7] came out at 76%.

Take `N#Cc1cccc(-c2c[nH]c3ncnc(N4CCOCC4)c23)c1`: the % of inhibition in test [8] was found to be 19%.

For orientation: IC50 means the concentration needed to halve the response being measured. On to `CCC(=O)N1CC[C@H](Nc2ncnc3c2CN(c2cnc(OC)c(C(F)(F)F)c2)CC3)C1` [LENIOLISIB], for which the IC50 in test [9] is > 10 µM.

On to `CC[C@@H]1[C@H](F)C(=O)N[C@@H]1COc1nccc2cc(C(N)=O)c(OC)cc12` [ZIMLOVISERTIB], for which the % of inhibition in test [10] was -1.97%; in test [11] it was 8%.

For the compound `CCN(CC)CCCCNc1ncc2cc(-c3cc(OC)cc(OC)c3)c(NC(=O)NC(C)(C)C)nc2n1`, the % of control in [12] is 100%.

Consider `COc1cc(Nc2nc(C)cc(-c3cnn4nc(OC)ccc34)n2)cc(C(F)(F)F)c1`, for which the % of control in [13] came to 87%.

Take `Cc1cc(F)c(C(=O)Nc2cccc(-c3nncn3C(C)C)n2)cc1-n1cnc(C2CC2)c1`: the % of control in [14] is 100%.

On to `CCC(=O)N1CCN(c2ccc(-n3c(=O)ccc4cnc5ccc(-c6cnc7ccccc7c6)cc5c43)cc2C(F)(F)F)CC1`, for which the % of control in [15] was 90%.

`CN(C(=O)c1cnn2cccnc12)c1cc2c(cc1N1CCOCC1)C(=O)N(C[C@@H](F)C(C)(C)O)C2` displayed a dTM in [16] of 0.7 K.

For `C=CC(=O)Nc1cc(-n2c(=O)ccc3cnc4ccc(-c5ccc(NS(C)(=O)=O)cc5)cc4c32)ccc1C`, the % of control in [17] (at 1 µM) and in test [17] (at 10 µM) was 100% each time.

Take `O[C@H]1CC[C@H](Nc2ncc3nc(Nc4c(F)cc(F)cc4F)n([C@H]4CCOC4)c3n2)CC1`: in test [18], the % of control came out at 100%.

On to `COCC(=O)NC/C=C/c1ccc2ncnc(Nc3ccc(Oc4ccc(C)nc4)c(C)c3)c2c1` [CP-724714], for which, in test [19], the % of control stood at 3%.
